From US20260297070A1, “CYCLIC [COMPOUND LEFT OUT] WRN INHIBITORS” (Nimbus Wadjet, Inc., priority 2023, published 2026) come the findings set out here.

The experiment deals with T1, human Werner helicase (WRN-BV08, Uniprot Q14191, amino acids 517-1235 with L1074F point mutation) (Homo sapiens, UniProt Q14191, L1074F).
T1 construct: Uniprot Q14191, amino acids 517-1235 with L1074F point mutation; TEV-cleavable 8×His (C, cleaved yes); made in house; host or cells: Sf9 insect cells (baculovirus)
Nature of the experiment: WRN (BV08) ADP-Glo Assay. The experiment is classed as biochemical. The conditions noted are these: 0.15 nM WRN, 5 μM ATP, 0.1 nM DNA duplex, 15 min preincubation, 60 min at 25° C., pH 7.5, 1% DMSO; read-out: ADP-Glo_hWRN_IC50. From the text:
Example 2: WRN (BV08) ADP-Glo Assay Protocol
Bovine skin gelatin (BSG), dimethyl sulfoxide (DMSO), Pluronic F-127 and Tris(2-carboxyethyl)phosphine hydrochloride solution (TCEP) were purchased from Sigma-Aldrich at the highest level of purity possible. Bicine buffer solution was purchased from Alfa Aesar and compound NSC-617145 was purchased from Tocris. DNA duplex was synthesized at BGI (Shenzhen, China) and was composed of strand 1 with the sequence 5′-[…]-3′ (SEQ ID NO.: 1) and strand 2 with the sequence 5′-[…]-3′ (SEQ ID NO.: 2). DNA strands were annealed by heating to 95° C. for 5 minutes followed by slow cooling to room temperature. Compounds in 100% DMSO (0.1 μl) were spotted into a 384-well white polystyrene Optiplate-384 (Perkin Elmer) assay plate using a LabCyte Echo 550 (Agilent). DMSO (0.1 μl) was added to columns 12, rows A-H and column 24, rows I-P for the maximum signal control. Compound NSC-617145 (0.1 μl) was added to columns 12, rows I-P and 24, rows A-H for the minimum signal control (100% inhibition). Compounds/DMSO were preincubated for 15 minutes at 25° C. with 5 uL 2×WRN (BV08), prepared as described below, in assay buffer containing 20 mM Bicine (pH=7.5), 1 mM MgCl2, 10 mM KCl, 0.1% Pluronic F-127, 0.005% BSG, 1 mM TCEP. The reaction was initiated by the addition of 5 μl 2× substrate mixture in assay buffer and incubated for 60 minutes at 25° C. The final concentrations of the assay components were 0.15 nM WRN, 5 μM ATP, and 0.1 nM DNA duplex. The final DMSO concentration was 1% and the reference compound concentration (NSC-617145) used for the minimal signal control was 20 μM. The reaction was stopped by the addition of the ADP-Glo Kit components (Promega) as directed and the relative luminescence units (RLU) were read on an Envision 2104 (Perkin Elmer).
% Inhibition Calculation:
Where RLU=relative luminescence units, sample=signal in sample well, and MIN and MAX are the respective minimum and maximum signal controls.
Four-Parameter IC50 Fit Equation:
Where top and bottom are normally allowed to float but may be fixed at 100 or 0 respectively in a 3-parameter fit. Y is the % inhibition and X is the compound concentration.
Molecular Biology and virus production. The DNA encoding human Werner helicase (Uniprot Q14191, amino acids 517-1235 with L1074F point mutation) was generated with codon-optimization for E. coli expression and subcloned into the pFastBac vector with a TEV cleavable 8×His tag (WRN-BV08). The baculovirus from the expression plasmid WRN-BV08 was generated from transfection and amplification following the manufacturer's instructions.
Sf9 cells grown in SF900II media were infected with 1:200 WRN-BV08 P2 virus and incubated for protein expression for 72 h at 27° C. The WRN protein was purified using the following protocol. The cell pellets were thawed and resuspended in buffer A (50 mM Tris, pH 7.5, 500 mM NaCl, 1 mM TCEP, 10% Glycerol) supplemented with 0.5% CHAPS, 1 mM [COMPOUND LEFT OUT], 1 μg/mL Leupeptin, 1 μg/mL Pepstatin, and the Pierce Universal Nuclease and cocktail tablet. Cleared lysates were loaded onto a Ni Sepharose™ excel column and washed with buffer A and bound protein was eluted with buffer A supplemented with 300 mM imidazole. The eluted protein was dialyzed against buffer A and digested by His-tagged TEV (1:5 ratio) overnight at 4° C. ZnCl2 was added into the sample at final 15 μM before loading onto a second Ni Sepharose™ excel column. Untagged WRN protein was eluted from the column with buffer A supplemented with 20 mM imidazole, dialyzed overnight into buffer B (50 mM Tris, pH 7.5, 1 mM TCEP, 10% Glycerol) supplemented with 150 mM NaCl and loaded onto a Heparin column. Proteins were eluted with a step gradient of buffer B supplemented with 150 mM, 200 mM, 300 mM and 500 mM NaCl. […]
On the technique in general: In ADP-Glo the light output rises with the ADP produced.

T1 sequence (Q14191 with tags, fused parts or gaps L1074F limits assumed): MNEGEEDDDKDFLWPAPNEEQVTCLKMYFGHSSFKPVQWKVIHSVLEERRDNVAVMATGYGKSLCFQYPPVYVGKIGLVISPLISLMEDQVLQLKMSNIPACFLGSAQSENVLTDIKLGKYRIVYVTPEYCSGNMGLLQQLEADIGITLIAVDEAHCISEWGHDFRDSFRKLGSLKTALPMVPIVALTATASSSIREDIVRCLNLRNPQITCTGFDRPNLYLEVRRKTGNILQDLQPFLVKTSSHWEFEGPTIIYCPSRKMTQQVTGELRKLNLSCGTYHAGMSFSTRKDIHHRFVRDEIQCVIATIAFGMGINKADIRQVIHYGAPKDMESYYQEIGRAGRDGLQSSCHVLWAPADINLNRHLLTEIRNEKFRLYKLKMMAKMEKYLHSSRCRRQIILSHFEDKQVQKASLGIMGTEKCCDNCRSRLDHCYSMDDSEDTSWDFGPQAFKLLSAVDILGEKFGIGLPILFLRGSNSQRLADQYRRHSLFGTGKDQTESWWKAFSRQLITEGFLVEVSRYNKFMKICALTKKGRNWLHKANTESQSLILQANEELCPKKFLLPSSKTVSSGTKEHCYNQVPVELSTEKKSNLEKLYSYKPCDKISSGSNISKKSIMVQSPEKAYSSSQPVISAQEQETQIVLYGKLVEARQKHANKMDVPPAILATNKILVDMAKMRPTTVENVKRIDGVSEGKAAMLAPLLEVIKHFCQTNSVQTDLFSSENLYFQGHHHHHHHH

In the case of `CC(C)(O)c1cc(CN(C(=O)c2c[nH]c3cc(-c4ccc(F)cc4)ccc23)C2C=CS(=O)(=O)C2)ccn1` (stereo not shown) [I-424, N-(1,1-dioxo-2,3-dihydro-1lambda6-thiophen-3-yl)-6-(4-fluorophenyl)-N-{[2-(2-hydroxypropan-2-yl)pyridin-4-yl]methyl}-1H-indole-3-carboxamide], the IC50 is greater than 50 µM.
As to `O=C(Cc1cccc(CC(F)(F)F)c1)N(Cc1ccncc1)C1C=CS(=O)(=O)C1` (stereo not shown) [I-393, N-(1,1-dioxo-2,3-dihydro-1lambda6-thiophen-3-yl)-N-[(pyridin-4-yl)methyl]-2-[3-(2,2,2-trifluoroethyl)phenyl]acetamide], the IC50 was greater than 50 µM.
As to `COc1cc(CN(C(=O)Cc2ccc(-c3ccc(F)cc3O)nc2)C2C=CS(=O)(=O)C2)ccn1` (single isomer, unassigned) [I-130], the IC50 was in the range of 0.5 to 5 µM.
For `CCC(C(=O)N(Cc1ccncc1)C1C=CS(=O)(=O)C1)c1ccc(-n2cccc2)cc1` (stereo not shown) [I-484, N-(1,1-dioxo-2,3-dihydro-1lambda6-thiophen-3-yl)-N-[(pyridin-4-yl)methyl]-2-[4-(1H-pyrrol-1-yl)phenyl]butanamide], the IC50 is greater than 50 µM.
On to `CC(C)OC(C(=O)N(Cc1ccnc(C(C)(C)O)c1)C1C=CS(=O)(=O)C1)c1ccc(-c2ccc(F)c(F)c2)cc1F` (stereo not shown) [I-167, N-(1,1-dioxo-2,3-dihydro-1lambda6-thiophen-3-yl)-N-{[2-(2-hydroxypropan-2-yl)pyridin-4-yl]methyl}-2-(propan-2-yloxy)-2-{3,3′,4′-trifluoro-[1,1′-biphenyl]-4-yl}acetamide], for which the IC50 was in the range of 0.5 to 5 µM.
With `O=C(Cc1ccc(C(F)(F)F)c(F)c1)N(Cc1ccncc1)C1C=CS(=O)(=O)C1` (stereo not shown) [I-236, N-(1,1-dioxo-2,3-dihydro-1lambda6-thiophen-3-yl)-2-[3-fluoro-4-(trifluoromethyl)phenyl]-N-[(pyridin-4-yl)methyl]acetamide] the figure was 5 to 10 µM; with `O=C(Cc1ccc(S(F)(F)(F)(F)F)cc1)N(Cc1cscn1)C1C=CS(=O)(=O)C1` (stereo not shown) [I-657, N-(1,1-dioxo-2,3-dihydro-1lambda6-thiophen-3-yl)-2-[4-(pentafluoro-lambda6-sulfanyl)phenyl]-N-[(1,3-thiazol-4-yl)methyl]acetamide], 0.5 to 5 µM; with `O=C(Cc1ccc(-n2cccc2)cc1)N(Cc1ccccc1Cl)C1C=CS(=O)(=O)C1` (stereo not shown) [I-521, N-[(2-chlorophenyl)methyl]-N-(1,1-dioxo-2,3-dihydro-1lambda6-thiophen-3-yl)-2-[4-(1H-pyrrol-1-yl)phenyl]acetamide], greater than 50 µM.
As to `COc1cc(CN(C(=O)Cc2ccc(-n3cccc3C)cc2F)[C@H]2C=CS(=O)(=O)C2)ccn1` [I-425, N-[(3S)-1,1-dioxo-2,3-dihydro-1lambda6-thiophen-3-yl]-2-[2-fluoro-4-(2-methyl-1H-pyrrol-1-yl)phenyl]-N-[(2-methoxypyridin-4-yl)methyl]acetamide], the IC50 is greater than 50 µM.
With `CC1CC1c1ccc(CC(=O)N(Cc2ccncc2)C2C=CS(=O)(=O)C2)cc1` (stereo not shown) [I-245, N-(1,1-dioxo-2,3-dihydro-1lambda6-thiophen-3-yl)-2-[4-(2-methylcyclopropyl)phenyl]-N-[(pyridin-4-yl)methyl]acetamide], the IC50 is 5 to 10 µM.
For the compound `CN(C)c1cc(CN(C(=O)Cc2ccc(-c3ccc(F)c(F)c3)cc2F)C2C=CS(=O)(=O)C2)ccn1` (stereo not shown) [I-99, N-{[2-(dimethylamino)pyridin-4-yl]methyl}-N-(1,1-dioxo-2,3-dihydro-1lambda6-thiophen-3-yl)-2-{3,3′,4′-trifluoro-[1,1′-biphenyl]-4-yl}acetamide], the IC50 was in the range of 0.5 to 5 µM.
The same measure for `O=C(Cc1ccc(-n2cccc2)cc1)N(Cc1cccc2[nH]ccc12)C1C=CS(=O)(=O)C1` (stereo not shown) [I-497, N-(1,1-dioxo-2,3-dihydro-1lambda6-thiophen-3-yl)-N-[(1H-indol-4-yl)methyl]-2-[4-(1H-pyrrol-1-yl)phenyl]acetamide]: greater than 50 µM; for `COC(C(=O)N(Cc1ccnc(C(C)(C)O)c1)C1C=CS(=O)(=O)C1)c1ccc(S(F)(F)(F)(F)F)cc1` (single isomer, unassigned) [I-664, (2R*)-N-[(3R**)-1,1-dioxo-2,3-dihydro-1lambda6-thiophen-3-yl]-N-{[2-(2-hydroxypropan-2-yl)pyridin-4-yl]methyl}-2-methoxy-2-[4-(pentafluoro-lambda6-sulfanyl)phenyl]acetamide]: less than 0.5 µM; for `O=C(Cn1cc(-c2ccc(F)c(F)c2)cn1)N(Cc1nc(C2CC2)cs1)C1C=CS(=O)(=O)C1` (single isomer, unassigned) [I-604]: 0.5 to 5 µM.
Consider `COC(C(=O)N(Cc1ccncc1)C1C=CS(=O)(=O)C1)c1ccc(-c2ccc(F)cc2)cc1` (single isomer, unassigned) [I-575, (2R*)-N-[(3R**)-1,1-dioxo-2,3-dihydro-1lambda6-thiophen-3-yl]-2-{4′-fluoro-[1,1′-biphenyl]-4-yl}-2-methoxy-N-[(pyridin-4-yl)methyl]acetamide], for which the IC50 is greater than 50 µM.
With `NS(=O)(=O)c1ccc(CN(C(=O)Cc2ccc(-n3cccc3)cc2)C2C=CS(=O)(=O)C2)cc1` (stereo not shown) [I-184, N-(1,1-dioxo-2,3-dihydro-1lambda6-thiophen-3-yl)-2-[4-(1H-pyrrol-1-yl)phenyl]-N-[(4-sulfamoylphenyl)methyl]acetamide], the IC50 was 0.5 to 5 µM.
Take `O=C(Cc1ccc(-n2cccc2)cc1)N(Cc1ccnc(-c2ccccc2)c1)C1C=CS(=O)(=O)C1` (stereo not shown) [I-297, N-(1,1-dioxo-2,3-dihydro-1lambda6-thiophen-3-yl)-N-[(2-phenylpyridin-4-yl)methyl]-2-[4-(1H-pyrrol-1-yl)phenyl]acetamide]: the IC50 lay within 0.5 to 5 µM.
Take `COc1ccc(CN(C(=O)Cc2ccc(-n3cccc3)cc2)C2C=CS(=O)(=O)C2)cc1OC` (stereo not shown) [I-280, N-[(3,4-dimethoxyphenyl)methyl]-N-(1,1-dioxo-2,3-dihydro-1lambda6-thiophen-3-yl)-2-[4-(1H-pyrrol-1-yl)phenyl]acetamide]: the IC50 is 10 to 50 µM.
With `O=C(Cc1ccc(-n2cccc2)cc1)N(Cc1nc(CC(F)(F)F)cs1)C1C=CS(=O)(=O)C1` (stereo not shown) [I-148, N-(1,1-dioxo-2,3-dihydro-1lambda6-thiophen-3-yl)-2-[4-(1H-pyrrol-1-yl)phenyl]-N-{[4-(2,2,2-trifluoroethyl)-1,3-thiazol-2-yl]methyl}acetamide], the IC50 is 0.5 to 5 µM.
Turning to `CC(=O)N(C)C(C(=O)N(Cc1ccncc1)C1C=CS(=O)(=O)C1)c1ccc(-n2cccc2)cc1` (stereo not shown) [I-377, N-(1,1-dioxo-2,3-dihydro-1lambda6-thiophen-3-yl)-2-(N-methylacetamido)-N-[(pyridin-4-yl)methyl]-2-[4-(1H-pyrrol-1-yl)phenyl]acetamide], the IC50 was greater than 50 µM.
For `O=C(Cc1ccc(-n2cccc2)cc1F)N(Cc1ccc(Br)cc1)C1C=CS(=O)(=O)C1` (stereo not shown) [I-122, N-[(4-bromophenyl)methyl]-N-(1,1-dioxo-2,3-dihydro-1lambda6-thiophen-3-yl)-2-[2-fluoro-4-(1H-pyrrol-1-yl)phenyl]acetamide], the IC50 fell in the range of 0.5 to 5 µM.
Take `COc1cc(CC(=O)N(Cc2ccncc2)C2C=CS(=O)(=O)C2)cc(OC)c1Br` (stereo not shown) [I-631, 2-(4-bromo-3,5-dimethoxyphenyl)-N-(1,1-dioxo-2,3-dihydro-1lambda6-thiophen-3-yl)-N-[(pyridin-4-yl)methyl]acetamide]: the IC50 is greater than 50 µM.
